What was measured:
[1] = biological target: Human immunodeficiency virus type 1 reverse transcriptase (Human immunodeficiency virus 1) (UniProt Q72547); test: In vitro inhibitory activity of compound against human immunodeficiency virus type 1 (HIV-1) Reverse transcriptase at a concentration of 10 ug/mL.
[2] = biological target: T1, Human immunodeficiency virus type 1 reverse transcriptase (Human immunodeficiency virus 1, UniProt Q72547); test: In vitro inhibitory activity of compound against human immunodeficiency virus type 1 (HIV-1) Reverse transcriptase
[3] = biological target: Human immunodeficiency virus type 1 reverse transcriptase (Human immunodeficiency virus 1) (UniProt Q72547); test: In vitro inhibitory activity of compound against human immunodeficiency virus type 1 (HIV-1) rReverse transcriptase at a concentration of 10 ug/mL.
[4] = tested on: T-cell line; test: In vitro cytotoxicity in CD4+ human T-cells (c8166), […]; type: functional
[5] = biological target: T1, Human immunodeficiency virus type 1 reverse transcriptase; test: In vitro inhibitory activity against human immunodeficiency virus type 1 (HIV-1) reverse transcriptase (RT)
[6] = biological target: Human immunodeficiency virus type 1 reverse transcriptase (Human immunodeficiency virus 1) (UniProt Q72547); test: In vitro inhibitory activity against human immunodeficiency virus type 1 (HIV-1) reverse transcriptase (RT) at a concentration of 10 ug/mL.

Structure (SMILES)	IC50 [5] [nM]	inhibition [6] [%]	also measured
CCN1c2ncccc2C(=O)N(C)c2cc(Cl)c([N+](=O)[O-])nc21	–	–	inhibition [1]: 98%; IC50 [2]: > 1000 nM
CCN1C(=O)c2ccccc2N(C)c2nc(Cl)ccc21	–	–	inhibition [3]: 76%; IC50 [2]: 3300 nM
Cc1cn([C@H]2C[C@H](N=[N+]=[N-])[C@@H](CO)O2)c(=O)[nH]c1=O [ZIDOVUDINE]	6	–	CC50 [4]: 66000 nM
CCN1c2cc(N)ccc2N(C)C(=O)c2cccnc21	4500	89	–
O=C1Nc2ccccc2Nc2ncccc21	> 1000	22	–
CCN1c2cccc(C)c2N(Cc2ccccc2)C(=O)c2cccnc21	> 1000	40	–
O=C1Nc2cccnc2N(C2CC2)c2ncccc21	450	99	–
C=CCN1C(=O)c2cccnc2N(C(=O)CC)c2ccccc21	> 1000	72	–
CC(=O)N1c2ncccc2C(=O)N(C)c2cccnc21	15300	73	–
CCCN1c2ccccc2N(C)C(=O)c2cccnc21	230	99	–
CCN1C(=O)c2cccnc2N(CC)c2cccc(C)c21	8000	90	–
CCN1c2ncccc2NC(=O)c2cc(C)cnc21	> 1000	89	–
CN1C(=O)c2ccccc2N(C)c2ncccc21	> 1000	74	–
N#Cc1ccnc2c1NC(=O)c1cccnc1N2C1CC1	1250	96	–
CCN1c2ncccc2C(=O)N(C)c2ccc(Cl)nc21	–	–	inhibition [1]: 100%; IC50 [2]: 150 nM
C#CN1c2ccccc2N(C)C(=O)c2cccnc21	650	97	–
Cc1cc2c(cc1C)N(CCN(C)C)c1ncccc1C(=O)N2C	> 1000	0	–
CN1C(=O)c2cccnc2N(CC(=O)OC(C)(C)C)c2ccccc21	> 1000	87	–
CN1C(=O)c2cccnc2N(CC(=O)O)c2ccccc21	> 1000	60	–
CC(=O)N1c2ccccc2N(C)C(=O)c2cccnc21	> 1000	72	–
C=CCN1C(=O)c2cccnc2N(C(C)=O)c2ccccc21	> 1000	83	–
CCN1C(=O)c2cccnc2N(C)c2ccccc21	> 1000	84	–
CCN1c2cccc(C)c2NC(=O)c2cccnc21	38	100	–
COCCN1C(=O)c2cccnc2Nc2ccccc21	> 1000	36	–
CCN1c2cc(NC(C)=O)ccc2N(C)C(=O)c2cccnc21	> 1000	49	–
CN1C(=O)c2cccnc2N(Cc2ccccc2)c2ccccc21	9000	93	–
CCN1c2cc(C(=O)c3ccccc3)ccc2N(C)C(=O)c2cccnc21	> 1000	73	–

From ChEMBL document CHEMBL1125844, “Novel non-nucleoside inhibitors of HIV-1 reverse transcriptase. 1. Tricyclic pyridobenzo- and dipyridodiazepinones” (J Med Chem, 1991)
